Test results from patent publication US20160324884A1, “TREATMENT OF DIABETES WITH PENTACYCLIC TRITERPENOID SAPONIN COMPOUNDS FROM SZECHUAN MELANDIUM ROOT” (priority 2013, published 2016).
Entries after “also recorded” stand apart in the source; their conditions may differ.

How the values were obtained:
Type in all cases: in vivo
KK^Ay mice [1] = test: Body weight, food and water intake in KK^Ay mice (Example 3); conditions: vs model group
Source text: 60 male KK^Ay mice (12 weeks of age, License NO. SCXK (BJ) 2009-0015, Beijing Huafukang Biology Technology Co. Ltd.) and 10 normal male C57BL/6 mice (12 weeks of age, License NO. SCXK (BJ) 2009-0015, Beijing Huafukang Biology Technology Co. Ltd.) were adaptively bred for one week, and then used in the following experiment.
The animals were housed individually in wood-chip-bedded plastic cages. Germ-free and high-fat diets (Beijing Huafukang Biology Technology Co. Ltd.) were used to feed the KK^Ay mice. All the animals had free access to food and water.
(§1) 60 KK^Ay mice were adaptively bred for 1 week, and then randomly assigned into 6 groups: Model group, Compound (1) group, Compound (2) group, Compound (3) group, Compound (4) group, and metformin group, 10 mice per group. 10 normal C57BL/6 mice were used for the control group. KK^Ay mice were in a high-fat diet, and the control normal mice were in a normal control diet. The control and model groups were hypodermically injected with sterile water, the 6 medicated groups mice were subcutaneously injected with […] Wacao saponins, (Compounds (1), (2), (3) and (4)) respectively, and the positive group was administered metformin by gavage. All mice were administrated at 9 am for 2 weeks and the administration volume is 10 ml/kg BW.
(§2) The body weight, food and water intake of each mouse was measured and recorded weekly throughout the course of the experiment. At the end of the experiment, collected the blood and separated serum, fasting blood glucose, insulin levels and insulin sensitivity index (ISI) were measured or calculated in each group. Liver, skeletal muscles of mice in each group were taken and weighed for detecting glycogen levels of the hepatic and muscles after mice being killed.
(§3) Compound (1), (2), (3) and (4) were respectively dissolved into sterile water, and sterilized with filtration for Sc. to the medication groups. The metformin was dissolved into sterile water for lg. to the positive control group. Control and model groups animals were injected with sterile water (10 ml/kg BW), Sc. All the animals were treated daily at 9 am for 2 weeks (14 days).
Measurement of food and water intake: 24 hours' food and water intake were measured by gravimetry once a week. It should be paid attention to recycling leakage of small forage into the feed box to ensure the accuracy of food intake.
Determination of body weight: The body weight of mice was measured and recorded once a week.
Results are shown as means±SD. Statistical analysis data were analyzed by using SPSS 10.0 software. Data were evaluated with analysis of variance.

KK^Ay mice [2] = test: Hepatic and muscle glycogen in KK^Ay mice (Example 3); conditions: 2.0 mg/kg Sc
Source text: as §1, §2, §3
Blood detection: Blood glucose was measured weekly. Overnight fasting glycemia level was measured with One Touch ULTRA Glucometer for the tail blood test. At the end of the experiment, blood serum was collected for measuring levels of fasting blood glucose and insulin, and the insulin sensitivity index (ISI) was calculated. At the same time, hepatic tissues and skeletal muscles of mice were taken out to determine levels of hepatic and muscle glycogen by detection kits.

normal ICR mice = test: Glycemia in normal ICR mice (Example 4); conditions: 2.0 mg/kg Sc, vs control group
Source text: 40 male ICR mice (20-22g, License NO. SCXK (BJ) 2011-0004, Beijing SPF Experimental Animal Technology Co. Ltd.) were adaptively bred for one week, and then used in the following experiment.
Animals were housed individually in wood-chip-bedded plastic cages and fed the standard laboratory chow. All the animals had ad libitum access to food and water.
40 ICR mice were adaptively bred for 1 week, and then randomly assigned into 4 groups: Model, Compound (1), Compound (2) and metformin group, 10 mice per group. All the animals were fed with normal food. Mice in the control group were hypodermically injected with sterile water. The treated groups were subcutaneously injected with Compounds (1) and (2), respectively. And the positive group was administrated metformin by gavage. All the animals were administrated at 9 am for 2 weeks, and the dose volume is 10 ml/kg BW.
Compound (1) and (2) were respectively dissolved into sterile water, and sterilized with filtration for Sc. The metformin was dissolved into sterile water for lg. to the positive control group. Mice in the control group were injected with sterile water (10 ml/kg BW), Sc. All the animals were treated at 9 am for 2 weeks (14 days).
Blood detection: Blood glucose was measured weekly. Overnight fasting glycemia was measured by One Touch ULTRA Glucometer (LifeScan Johnson and Johnson, USA) for the tail blood test.
End of the experiment: After mice being administrated for 2 weeks (14 days), the experiment was terminated.

## CC(=O)OC1C(OC(=O)/C=C/c2ccc(C)cc2)C(C)OC(OC(=O)[C@]23CCC(C)(C)C[C@H]2C2C=C[C@@H]4[C@@]5(C)CC[C@H](OC6OC(C(=O)O)C(O)C(OC7OCC(O)C(O)C7O)C6OC6OC(CO)C(O)C(O)C6O)[C@@](C)(C=O)[C@@H]5CC[C@@]4(C)[C@]2(C)C[C@H]3O)C1OC1OC(C)C(O)C(O)C1O (stereo partly drawn) [Compound (1), sinocrassuloside VI]
KK^Ay mice [1]; 2.0 mg/kg BW Sc, 2 weeks
  body weight growth: best effect of resistance on body weight growth
KK^Ay mice [1]; after 1 week, compounds 2.0 mg/kg Sc, metformin 500 mg/kg lg
  food intake: decreased obviously
KK^Ay mice [2]; 2 weeks, comparison among compounds and with metformin, 2 mg/kg
  enhancement of glycogen storage: strongest activity of the function; also recorded: almost comparable to metformin
KK^Ay mice [2]; after 2 weeks, vs model group
  muscle glycogen level: stronger efficacy in raising levels muscle glycogen
Normal ICR mice; after 1 week
  glycemia level: no significant difference was found except the Compound (1) group (p<0.05, vs. control group)
Normal ICR mice; after 2 weeks
  glycemia level: decreased much obviously
